According to US5919793A, “Heterocyclic derivatives” (Zeneca Limited, priority 1993, dated 1999):

What was measured:
[1] = test system: squalene synthase (rat liver microsomal protein); assay: Inhibition of Squalene synthase (formation of squalene from tritiated farnesyl pyrophosphate); assay type: biochemical; settings: at 2.5 μM
Protocol: (a) Inhibition of Squalene synthase
In this test, the ability of a compound to prevent the formation of squalene from a radioactive substrate (tritiated farnesyl pyrophosphate) is assessed.
The test compound is incubated at a concentration of 25 micromolar in 200 μl of a buffered solution containing potassium phosphate (50 mM), MgCl2 (4.95 mM), KF (9.9 mM), NADPH (0.9 mM) and rat liver microsomal protein (20 μg). Rat liver microsomes are prepared by the method described in published European Patent Application No. 324,421 and stored in liquid nitrogen prior to assay. Assay vials are kept at 37° C. throughout the incubation.
The reaction is started with the addition of the substrate (1-[^3 H]-farnesyl pyrophosphate), final concentration 20 μM, and stopped after 15 minutes reaction time with the addition of 50 μl of 4% KOH. The reaction products are separated from unreacted substrate after application to a C-18 octadecyl 1 ccBond column (Analytichem Int product No. 617101). An aqueous fraction is eluted with 250 μl of 0.1M KOH. Squalene is then eluted with 1.0 ml 10% ethylacetate in hexane and radioactivity determined. The difference in radioactivity in the presence and absence of the test compound is used to determine the level of inhibition. […] The IC50 can then be determined from a plot of percentage inhibition against concentration of test compound.

[2] = test system: de novo hepatic cholesterol synthesis from 14C-acetate; assay: Acute rat cholesterol synthesis assay; assay type: in vivo; settings: inhibition of cholesterol synthesis
Protocol: (b) Acute rat cholesterol synthesis assay.
This is an acute in vivo test in the rat to measure de novo hepatic cholesterol synthesis from exogenously administered ^14 C-acetate.
Female rats (35-55 g) are housed in reverse lighting conditions (red light from 0200 h-1400 h) for a period of about 2 weeks prior to test. Animals are allowed free access to chow and drinking water throughout this period. At test, animals should weigh 125-150 g.
Test compounds may be administered by oral gavage, dissolved or suspended in 0.5% polysorbate, or by ip or iv dosing. Control animals receive vehicle alone. After 1 hour the rats are injected ip with 25 μCi [2-^14 C]-acetate (NEN DUPONT. specific activity, 45-60 mCi/mmol NEC-085H, or AHERSHAM specific activity, 50-60 mCi/mmol CFA 14) in a volume of 0.25 ml saline (100 μCi/ml). After a further hour, rats are terminally anaesthetised with halothane and a blood sample obtained from the abdominal vena cava.
1 ml of plasma is lyophilised and then saponified in 2 ml ethanolic KOH (1 part 33% KOH, 9 parts ethanol) at 75° C. for 2 hours. After addition of an equal quantity of water, non-saponifiable lipids are extracted with two 5 ml volumes of hexane. The hexane extracts are evaporated to dryness and the residues dissolved in ethanol to determine cholesterol specific radioactivity. ED50 values can be determined in the standard way.

COCCOc1cc(C)c(C#CC2(O)CN3CCC2CC3)c(C)c1 (centres unmarked) [Example 16]
inhibition of squalene synthase [1]: about 80% | ED50 [2]: ~5.1 mg/kg
